# Test results taken from patent US8263605B2, “Modulators of muscarinic receptors” (Vertex Pharmaceutical Incorporated, priority 2006, dated 2012).
# Tests used:
# M1 muscarinic receptor = target: T1, M1 muscarinic receptor (Homo sapiens, UniProt P11229); assay: Functional mobilization of intracellular calcium (FLIPR), M1-CHO cells; type: cell-based; settings: for Emax: 100% efficacy is the maximum response obtained with the Carbachol control; for M1 Activity: CHO cells expressing M1, calcium mobilization
# T1 construct: expressed in transfected cells; host or cells: CHO (M1-CHO)
# T1 sequence (P11229 1-460): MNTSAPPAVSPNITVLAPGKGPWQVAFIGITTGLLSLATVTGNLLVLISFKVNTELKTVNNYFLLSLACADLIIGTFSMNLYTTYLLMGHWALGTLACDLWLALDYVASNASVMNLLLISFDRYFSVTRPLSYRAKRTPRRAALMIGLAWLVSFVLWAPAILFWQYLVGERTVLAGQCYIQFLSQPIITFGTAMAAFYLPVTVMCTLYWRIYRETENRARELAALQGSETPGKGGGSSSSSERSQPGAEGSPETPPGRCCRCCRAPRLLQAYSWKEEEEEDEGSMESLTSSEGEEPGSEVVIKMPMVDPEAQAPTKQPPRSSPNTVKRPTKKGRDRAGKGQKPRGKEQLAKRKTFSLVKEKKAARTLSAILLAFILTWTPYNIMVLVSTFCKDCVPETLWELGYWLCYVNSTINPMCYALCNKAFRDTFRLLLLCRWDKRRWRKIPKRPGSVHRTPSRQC
# Protocol: (§1) Functional Mobilization of Intracellular Calcium to Determine Muscarinic Receptor Activity:
# (§2) CHO cells expressing muscarinic receptors (M1 to M5) are grown as monolayers in tissue culture flasks at 37° C. in a humidified atmosphere containing 5% CO2 and passaged every 3-5 days. The growth media is Dulbecco's modified eagles medium (DMEM, Gibco Cat#12430-054), containing 25 mM Hepes and supplemented with Fetal Bovine Serum (Hyclone, cat# SH30071.03), 0.1 mM of MEM non-essential amino acids (GIBCO, Cat#11140-050), 1 mM MEM Sodium Pyruvate (GIBCO Cat#11360-070) and 100 units/ml of Penicillin G and 100 μg/ml of Streptomycin (GIBCO Cat#15140-122). The recombinant muscarinic receptor cell lines are grown under antibiotic pressure with media containing 25 μg/ml zeocin and 500 μg/ml G418 (M1-CHO), 4 μg/ml puromycin, 50 μg/ml zeocin and 2.5 μg/ml blasticidin (M2 and M4-CHO) or 50 μg/ml zeocin and 4 μg/ml puromycin (M3 and M5-CHO).
# (§3) Cells are harvested at 80-90% confluence using Versene (GIBCO Cat#15040-066), collected by centrifugation and seeded 18-24 hours prior to running the calcium assay at a density of 5,000-10,000 cells/well in […], clear-bottomed 384-well plates (BD Biocoat, poly-D-lysine, Cat#356663). The day of the experiment, the cells are washed with a plate washer (Bioteck Instrunents, ELX 405) using bath 1 buffer (140-mM NaCl, 4.5-mM KCl, 2-mM CaCl2, 1-mM MgCl2, 10-mM Hepes-Na, 10-mM Glucose, pH 7.4, with NaOH) containing 1 mM Probenecid. Next, the calcium dye Fluo-3 (25 μl/well of Fluo-3 AM at 4 μM, Molecular Probes F-1241, in Bath 1 buffer containing 1 mM Probenecid) is added to the 25 μl of Bath 1 remaining in each well after the plate wash and the dye is loaded at 37° C. in the tissue culture incubator for 60-90 min. The fluorescent dye is removed using the plate washer with Bath 1 containing 1 mM Probenecid, leaving 25 μl/well of this solution after the wash. Alternatively, cells can be loaded with the calcium indicator from Molecular Devices (Calcium 3 Assay Reagents, Cat # R7181) adding 5 μl of a 5× solution dye in Bath 1 containing 1 mM Probenecid (10 ml per dye flask cat# R7182 to generate a solution 20×) to 20 μl of the same buffer. After loading for 60 min, the experiment can be run without having to remove the dye.
# (§4) Compounds are prepared at a 2× fold concentration in a 96-well plate (round bottom, Costar Corning cat#3656), by reconstituting the pre-spotted compounds in bath 1 containing 1 mM probenecid. The final concentration DMSO is 0.5%, and the amount of DMSO is normalized across the assay plate. To determine an agonist action of the compounds on muscarinic receptors, the reconstituted compounds are added (25 μl compound/well) to the cell assay plate (containing 25 μl/well) using the multi-channel robotic system of the FLIPR 3 Instrument (Molecular Devices, Sunnyvale, Calif.). To determine a functional inhibitory action of the compounds on muscarinic receptors, the reconstituted compounds are added (25 μl compound/well) to the assay plate and pre-incubated for 15 min prior to adding 25 μl of Carbachol at 3× the EC80 for each muscarinic subtype. Alternatively, the compounds can be co-applied simultaneously with the agonist. In both assay modes, the fluorescence is recorded for 60 sec (excitation wavelength is […] and emission wavelength 540 nm) using the FLIPR 3 instrument.
# (§5) The potency, efficacy and selectivity of the muscarinic compounds were evaluated by screening the compound activity across the whole family (M1 to M5 cells). Compounds were also screened for activity on other proteins such as other GPCRs and ion channels to determine selectivity on M4 receptors.
# (§6) Examples of activities and efficacies of the muscarinic compounds of formulae (I, Ia, Ib, Ic, Id, and Ie) on modulating M1 and M4 receptors are shown below in Table 4. […]
# M4 muscarinic receptor = target: T2, M4 muscarinic receptor (Homo sapiens, UniProt P08173); assay: Functional mobilization of intracellular calcium (FLIPR), M4-CHO cells; type: cell-based; settings: for Emax: 100% efficacy is the maximum response obtained with the Carbachol control; for M4 Activity: CHO cells expressing M4, calcium mobilization
# T2 construct: expressed in transfected cells; host or cells: CHO (M4-CHO)
# T2 sequence (P08173 1-479): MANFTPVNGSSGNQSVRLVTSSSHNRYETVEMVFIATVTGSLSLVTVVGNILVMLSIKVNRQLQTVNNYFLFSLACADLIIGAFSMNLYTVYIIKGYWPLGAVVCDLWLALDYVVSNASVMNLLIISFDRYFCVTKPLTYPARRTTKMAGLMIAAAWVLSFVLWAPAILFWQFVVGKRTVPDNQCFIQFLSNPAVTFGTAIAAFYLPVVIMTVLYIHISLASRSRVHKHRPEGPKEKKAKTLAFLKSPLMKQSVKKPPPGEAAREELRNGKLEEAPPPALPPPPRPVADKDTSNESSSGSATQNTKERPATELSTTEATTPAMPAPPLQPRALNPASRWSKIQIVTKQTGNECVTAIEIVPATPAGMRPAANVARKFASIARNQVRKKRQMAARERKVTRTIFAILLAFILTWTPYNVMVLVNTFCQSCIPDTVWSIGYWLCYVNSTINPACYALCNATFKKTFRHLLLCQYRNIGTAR
# Protocol: as §1, §2, §3, §4, §5, §6
SMILES,Emax (M1 muscarinic receptor) [%],M1 Activity (M1 muscarinic receptor),Emax (M4 muscarinic receptor) [%],M4 Activity (M4 muscarinic receptor)
"CN(C)C(=O)N[C@H]1CC2(CCN(C3CC4CC[C@@H]3C4)CC2)c2ccccc21 (stereo in doubt) [Compound No. 119, 3-((S)-1′-((1R,2S,4S)-bicyclo[2.2.1]heptan-2-yl)-2,3-dihydrospiro[indene-1,4′-piperidine]-3-yl)-1,1-dimethylurea]",< 25,+ (activity was measured to be greater than 10.0 μM),25 to 100,+++ (activity was measured to be less than 2.0 μM)
"CC#CCOC(=O)N1CCC(N2CCC3(CCN(C(=O)N(C)C)c4ccccc43)CC2)CC1 [Compound No. 5, but-2-ynyl 4-(1′-(dimethylcarbamoyl)-2′,3′-dihydro-1′H-spiro[piperidine-4,4′-quinoline]-1-yl)piperidine-1-carboxylate]",25 to 100,+++ (activity was measured to be less than 2.0 μM),25 to 100,+++ (activity was measured to be less than 2.0 μM)
"Cc1cncc(N2CCC(N3CCC4(CCN(C(=O)N(C)C)c5ccccc54)CC3)CC2)n1 [Compound No. 9, N,N-dimethyl-1-(1-(6-methylpyrazin-2-yl)piperidin-4-yl)-2′,31-dihydrospiro[piperidine-4,4′-quinoline]-1′-carboxamide]",25 to 100,+++ (activity was measured to be less than 2.0 μM),25 to 100,+++ (activity was measured to be less than 2.0 μM)
"CCOC(=O)N1CCC(N2CCC3(CCN(C(C)=O)c4ccccc43)CC2)CC1 [Compound No. 11, ethyl 4-(1′-acetyl-2′,3′-dihydro-1′H-spiro[piperidine-4,4′-quinoline]-1-yl)piperidine-1-carboxylate]",> 100,+++ (activity was measured to be less than 2.0 μM),> 100,+++ (activity was measured to be less than 2.0 μM)
"Cc1ncc(N2CCC(N3CCC4(CCN(C(=O)N(C)C)c5ccccc54)CC3)CC2)nc1C [Compound No. 20, 1-(1-(5,6-dimethylpyrazin-2-yl)piperidin-4-yl)-N,N-dimethyl-2′,3′-dihydrospiro[piperidine-4,4′-quinoline]-1′-carboxamide]",25 to 100,++ (activity was measured to be from 2.0 μM to 10.0 μM),25 to 100,+++ (activity was measured to be less than 2.0 μM)
"C#CCOC(=O)N1C2CCC1CC(N1CCC3(CCN(C(=O)N(C)C)c4ccccc43)CC1)C2 (stereo not shown) [Compound No. 28, prop-2-ynyl 3-(1′-(dimethylcarbamoyl)-2′,3′-dihydro-1′H-spiro[piperidine-4,4′-quinoline]-1-yl)-8-azabicyclo[3.2.1]octane-8-carboxylate]",25 to 100,+++ (activity was measured to be less than 2.0 μM),25 to 100,+++ (activity was measured to be less than 2.0 μM)
"CCc1nsc(N2C3CCC2CC(N2CCC4(CCN(C(=O)N(C)C)c5ccccc54)CC2)C3)n1 (stereo not shown) [Compound No. 32, 1-(8-(3-ethyl-1,2,4-thiadiazol-5-yl)-8-azabicyclo[3.2.1]octan-3-yl)-N,N-dimethyl-2′,3′-dihydro-1′ H-spiro[piperidine-4,4′-quinoline]-1′-carboxamide]",25 to 100,+++ (activity was measured to be less than 2.0 μM),25 to 100,+++ (activity was measured to be less than 2.0 μM)
"CCOC(=O)N1CCC(N2CCC3(CC2)CN(C(=O)N(C)C)c2ccccc23)CC1 [Compound No. 39, ethyl 4-(1-(dimethylcarbamoyl)spiro[indoline-3,4′-piperidine]-1′-yl)piperidine-1-carboxylate]",25 to 100,+++ (activity was measured to be less than 2.0 μM),25 to 100,+++ (activity was measured to be less than 2.0 μM)
"Cc1nsc(N2C3CCC2CC(N2CCC4(CC2)CN(C(=O)N(C)C)c2ccccc24)C3)n1 (stereo not shown) [Compound No. 65, N,N-dimethyl-1′-(8-(3-methyl-1,2,4-thiadiazol-5-yl)-8-azabicyclo[3.2.1]octan-3-yl)spiro[indoline-3,4′-piperidine]-1-carboxamide]",25 to 100,+++ (activity was measured to be less than 2.0 μM),25 to 100,+++ (activity was measured to be less than 2.0 μM)
"CN(C)C(=O)N1CC2(CCN(C3CC4CCC(C3)N4c3cnccn3)CC2)c2ccccc21 (stereo not shown) [Compound No. 103, N,N-dimethyl-1′-(8-(pyrazin-2-yl)-8-azabicyclo[3.2.1]octan-3-yl)spiro[indoline-3,4′-piperidine]-1-carboxamide]",25 to 100,+++ (activity was measured to be less than 2.0 μM),> 100,+++ (activity was measured to be less than 2.0 μM)
CCOC(=O)N1C2CCC1CC(N1CCC3(CCN(C(C)=O)c4ccccc43)CC1)C2 (stereo not shown) [compound 1],25 to 100,+++ (activity was measured to be less than 2.0 μM),25 to 100,+++ (activity was measured to be less than 2.0 μM)
COC(=O)N1CCC(N2CCC3(CCN(C(=O)N(C)C)c4ccccc43)CC2)CC1 [compound 2],25 to 100,+++ (activity was measured to be less than 2.0 μM),25 to 100,+++ (activity was measured to be less than 2.0 μM)
CCOC(=O)N1CCC(N2CCC3(CCN(C(=O)N(C)C)c4ccccc43)CC2)CC1 [compound 3],25 to 100,+++ (activity was measured to be less than 2.0 μM),> 100,+++ (activity was measured to be less than 2.0 μM)
